Where two headings read alike, the source gives them in different places.

The subject of experiment [1] is T24-BAG4 human bladder carcinoma cells. The experiment can be described thus: Cell Mat Assay: inhibition of tumor cell growth. In kind it is cell-based. The following applies: 336 h, tIC50, 14 d colony formation. On the procedure: (§1) Normal human HEPM fibroblasts were planted in 3.5 cm dishes at a density of 5×10^4 cells/dish in 2 ml growth medium, and incubated for 3-5 d to achieve confluence. Medium was aspirated from each dish and the indicator tumor cells, T24-BAG4 human bladder carcinoma cells expressing an activated H-ras gene, were planted on top of the fibroblast monolayer at a density of 2×10^3 cells/dish in 2 ml growth medium, and allowed to attach overnight. Compound-induced colony inhibition was assayed by addition of serial dilutions of compound directly to the growth medium 24 h after tumor cell planting, and incubating cells for an additional 14 d to allow colony formation. Assays were terminated by rinsing monolayers twice with phosphate-buffered saline (PBS), fixing the monolayers with a 1% glutaraldehyde solution in PBS, then visualizing tumor cells by staining with X-Gal (Price, J., et al., Lineage analysis in the vertebrate nervous system by retrovirus-mediated gene transfer, Proc. Natl. Acad. Sci. 84, 156-160(1987)). In the colony inhibition assay, compounds were evaluated on the basis of two IC50 values: the concentration of drug required to prevent the increase in tumor cell number by 50% (tIC50) and the concentration of drug required to reduce the density of cells comprising the cell mat by 50% (mIC50). Both IC50 values were obtained by determining the density of tumor cells and mat cells by visual inspection and enumeration of cells per colony and the number of colonies under the microscope. The therapeutic index of the compound was quantitatively expressed as the ratio of mIC50 /tIC50, with values greater than one indicative of tumor target specificity.

The subject of experiment [2] is Normal human HEPM fibroblasts. The experiment can be described thus: Cell Mat Assay: inhibition of normal cell growth (cell mat). In kind it is cell-based. The settings on record: Fibroblast, mIC50, normal cell monolayer. On the procedure:
as §1

Experiment [3] deals with T1, geranylgeranyl protein transferase (GGPT) I (Rattus norvegicus, UniProt P53610+Q04631).
T1 construct: were partially purified from rat brain by ammonium sulfate fractionation; from tissue; host or cells: rat brain
The experiment can be described thus: In vitro enzyme assay: inhibition of geranylgeranyl protein transferase (GGPT) I, Ras-CVLL as acceptor. In kind it is biochemical. An excerpt:
(§2) 1. In vitro enzyme assays: Inhibition of farnesyl protein transferase and geranylgeranyl protein transferase.
Both farnesyl protein transferase (FPT) and geranylgeranyl protein transferase (GGPT) I were partially purified from rat brain by ammonium sulfate fractionation followed by Q-Sepharose (Pharmacia, Inc.) anion exchange chromatography essentially as described by Yokoyama et al (Yokoyama, K., et al., (1991), A protein geranylgeranyltransferase from bovine brain: Implications for protein prenylation specificity, Proc. Natl. Acad. Sci USA 88: 5302-5306, the disclosure of which is incorporated herein by reference thereto). Human farnesyl protein transferase was also expressed in E. coli, using cDNA clones encoding both the a and b subunits. The methods used were similar to those published (Omer, C. et al., (1993), Characterization of recombinant human farnesyl protein transferase: Cloning, expression, farnesyl diphosphate binding, and functional homology with yeast prenyl-protein transferases, Biochemistry 32:5167-5176). Human farnesyl protein transferase was partially-purified from the soluble protein fraction of E. coli as described above. the tricyclic farnesyl protein transferase inhibitors disclosed herein inhibited both human and rat enzyme with similar potencies. […]

Experiment [4] deals with T2, farnesyl protein transferase (FPT) (Rattus norvegicus, UniProt Q02293+Q04631).
T2 construct: were partially purified from rat brain by ammonium sulfate fractionation; from tissue; host or cells: rat brain
As to the kind of experiment: In vitro enzyme assay: inhibition of farnesyl protein transferase (FPT), Ras-CVLS farnesylation. Format: biochemical.
From the text: as §2
Both farnesyl protein transferase (FPT) and geranylgeranyl protein transferase (GGPT) I were partially purified from rat brain by ammonium sulfate fractionation followed by Q-Sepharose (Pharmacia, Inc.) anion exchange chromatography essentially as described by Yokoyama et al (Yokoyama, K., et al., (1991), A protein geranylgeranyltransferase from bovine brain: Implications for protein prenylation specificity, Proc. Natl. Acad. Sci USA 88: 5302-5306, the disclosure of which is incorporated herein by reference thereto). Human farnesyl protein transferase was also expressed in E. coli, using cDNA clones encoding both the a and b subunits. The methods used were similar to those published (Omer, C. et al., (1993), Characterization of recombinant human farnesyl protein transferase: Cloning, expression, farnesyl diphosphate binding, and functional homology with yeast prenyl-protein transferases, Biochemistry 32:5167-5176). Human farnesyl protein transferase was partially-purified from the soluble protein fraction of E. coli as described above. the tricyclic farnesyl protein transferase inhibitors disclosed herein inhibited both human and rat enzyme with similar potencies. Two forms of val^12 -Ha-Ras protein were prepared as substrates for these enzymes, differing in their carboxy terminal sequence. One form terminated in cysteine-valine-leucine-serine (Ras-CVLS) the other in cystein-valine-leucine-leucine (Ras-CVLL). Ras-CVLS is a substrate for the farnesyl protein transferase while Ras-CVLL is a substrate for geranylgeranyl protein transferase I. The cDNAs encoding these proteins were constructed so that the proteins contain an amino-terminal extension of 6 histidine residues. Both proteins were expressed in Escherichia coli and purified using metal chelate affinity chromatography. The radiolabelled isoprenyl pyrophosphate substrates, [^3 H]farnesyl pyrophosphate and [^3 H]geranylgeranyl pyrophosphate, were purchased from DuPont/New England Nuclear.
Several methods for measuring farnesyl protein transferase activity have been described (Reiss et al 1990, Cell 62: 81; Schaber et al 1990, J. Biol. Chem. 265: 14701; Manne et al 1990, PNAS 87: 7541; and Barbacid & Manne 1993, U.S. Pat. No. 5,185,248). The activity was assayed by measuring the transfer of [^3 H]farnesyl from [^3 H]farnesyl pyrophosphate to Ras-CVLS using conditions similar to those described by Reiss et al. 1990 (Cell 62: 81) The reaction mixture contained 40 mM Hepes, pH 7.5; 20 mM magnesium chloride; 5 mM dithiothreitol; 0.25 μM [^3 H]farnesyl pyrophosphate; […] Q-Sepharose-purified farnesyl protein transferase; the indicated concentration of tricyclic compound or dimethylsulfoxide (DMSO) vehicle control (5% DMSO final); and […] Ras-CVLS in a total volume of […]. The reaction was allowed to proceed for 30 minutes at room temperature and then stopped with 0.5 ml of 4% sodium dodecyl sulfate (SDS) followed by 0.5 ml of cold 30% trichloracetic acid (TCA). Samples were allowed to sit on ice for 45 minutes and precipitated Ras protein was then collected on GF/C filter paper mats using a Brandel cell harvester. Filter mats were washed once with 6% TCA, 2% SDS and radioactivity was measured in a Wallac 1204 Betaplate BS liquid scintillation counter. Percent inhibition was calculated relative to the DMSO vehicle control.

Experiment [5] relates to Ras-CVLS processing in COS monkey kidney cells. The experiment can be described thus: Cell-Based Assay: Ras-CVLS processing in transfected COS monkey kidney cells. The settings on record: Primates, read-out: COS IC50 (inhibition of Ras-CVLS processing). An excerpt:
2. Cell-Based Assay: Transient expression of val^12 -Ha-Ras-CVLS and val^12 -Ha-Ras-CVLL in COS monkey kidney cells: Effect of farnesyl protein transferase inhibitors on Ras processing and on disordered cell growth induced by transforming Ras.
COS monkey kidney cells were transfected by electroporation with the plasmid pSV-SPORT (Gibco/BRL) containing a cDNA insert encoding either Ras-CVLS or Ras-CVLL, leading to transient overexpression of a Ras substrate for either farnesyl protein transferase or geranylgeranyl protein transferase I, respectively (see above). […]
Membranes were blocked by incubation overnight at 4° C. in PBS containing 2.5% dried milk and 0.5% Tween-20 and then incubated with a Ras-specific monoclonal antibody, Y13-259 (Furth, M. E., et al., (1982), Monoclonal antibodies to the p21 products of the transforming gene of Harvey murine sarcome virus and of the cellular ras gene family, J. Virol. 43: 294-304), in PBS containing 1% fetal calf serum for one hour at room temperature. […] The presence of processed and unprocessed Ras-CVLS or Ras-CVLL was detected using a colorimetric peroxidase reagent (4-chloro-1-naphthol) as described by the manufacturer (Bio-Rad).

Setting [6] is: Table 3, comparison of FPT and GGPT inhibition, read-out: ENZYME INHIBITION FPT IC50.

The IC50 is the concentration that inhibits the measured activity by half. For `O=S(=O)(c1cccs1)N1CCC/C(=C2\c3ccc(Cl)cc3CCc3cccnc32)C1` [Compound E-1G], the half-maximal inhibitory concentration (IC50) in experiment [1] is 12.5 µM; in experiment [2], more than 25 µM; in experiment [3] (Table 3) it was less than 13 µM; in experiment [4] (Table 2, read-out: FPT IC50), less than 440 nM; in experiment [4] (setting [6]), 470 nM.
Regarding `O=S(=O)(c1ccccc1)N1CCC/C(=C2\c3ccc(Cl)cc3CCc3cccnc32)C1` [Compound E-2E], the IC50 is less than 3.1 µM in experiment [1]; more than 50 µM in experiment [2]; 7.4 µM in experiment [3] (Table 3, unit printed in the cell); 2500 nM in experiment [5]; 710 nM in experiment [4] (Table 2, read-out: FPT IC50); 710 nM in experiment [4] (setting [6]).
For the compound `O=S(=O)(c1ccccc1)N1CC/C(=C2\c3ccc(Cl)cc3CCc3cccnc32)C1` [Compound E-2], the IC50 in experiment [5] was more than 5000 nM; in experiment [4] (Table 2, read-out: FPT IC50) it was 590 nM.

Source of the values: patent US5684013A, “Tricyclic compounds useful for inhibition of g-protein function and for treatment of proliferative diseases” (Schering Corporation, priority 1995, dated 1997).
